Data published in ChEMBL document CHEMBL5126523, “Recent advances in DDR (DNA damage response) inhibitors for cancer therapy” (Eur J Med Chem, 2022).

Tests used:
[1] = target: T1, ATR/ATRIP (Homo sapiens, UniProt Q13535); assay: Inhibition of human FLAG-tagged ATR/c-Myc-tagged ATRIP expressed in mammalian expression system using p53 as substrate incubated for 2 hrs by fluorescence based assay
[2] = system: LoVo; assay: Inhibition of cell growth in human LoVo cells assessed as measuring ATP content incubated for 3 days by Cell Titer Glo assay; format: functional, cell-based; conditions: 72 h
[3] = target: T2, DNA-dependent protein kinase catalytic subunit (Homo sapiens, UniProt P78527); assay: Inhibition of DNA-PK (unknown origin) incubated for 3 hrs by ADP-Glo kinase assay
[4] = system: NCI-H460; assay: Inhibition of cell proliferation in human NCI-H460 cells incubated for 4 days by MTT assay; format: functional, cell-based; conditions: NCI-H460, 96 h
[5] = target: T1, ATR/ATRIP; assay: Inhibition of full-length human recombinant FLAG-tagged ATR/c-Myc-tagged ATRIP using p53 as substrate incubated for 30 mins in presence of ATP by fluorescence based assay; format: protein-complex assay
[6] = system: DU-145; assay: Inhibition of cell proliferation in human DU-145 cells incubated for 4 days by MTT assay; format: functional, cell-based; conditions: DU-145, 96 h
[7] = system: HCT-116; assay: Inhibition of cell proliferation in human HCT-116 cells incubated for 72 hrs by SRB assay; format: functional, cell-based; conditions: HCT-116, 72 h
[8] = system: HCC1937; assay: Inhibition of cell proliferation in human HCC1937 cells incubated for 72 hrs by SRB assay; format: functional, cell-based; conditions: HCC1937, 72 h
[9] = system: MDA-MB-231; assay: Inhibition of cell proliferation in human MDA-MB-231 cells incubated for 72 hrs by SRB assay; format: functional, cell-based; conditions: MDA-MB-231, 72 h
[10] = target: T3, Poly [ADP-ribose] polymerase 1 (Homo sapiens, UniProt P09874); assay: Inhibition of PARP1 (unknown origin) by ELISA
[11] = system: NCI-H1299; assay: Inhibition of cell proliferation in human NCI-H1299 cells incubated for 3 days by MTT assay; format: functional, cell-based; conditions: NCI-H1299, 72 h
[12] = Cmax in BALB/c mouse at 2 mg/kg, po by LC-MS/MS analysis; format: ADME, organism-based; parameters: dose 2 mg/kg, route po; conditions: in vivo
[13] = Oral bioavailability in BALB/c mouse at 2 mg/kg by LC-MS/MS analysis; format: ADME, organism-based; conditions: in vivo
[14] = target: T3, Poly [ADP-ribose] polymerase 1; assay: Inhibition of PARP1 (unknown origin) incubated for 1 hr by chemiluminescence assay
[15] = target: Phosphatidylinositol 4,5-bisphosphate 3-kinase catalytic subunit alpha isoform (Homo sapiens, UniProt P42336); assay: Inhibition of PI3K-alpha (unknown origin) incubated for 40 mins in presence of ATP by ELISA
[16] = target: T2, DNA-dependent protein kinase catalytic subunit; assay: Inhibition of DNA-PK (unknown origin) assessed as inhibition constant using Glu-Pro-Pro-Leu-Ser-Gln-Glu-Ala-Phe-Ala-Asp-Leu-Trp-Lys-Lys-Lys peptide as substrate incubated for 45 mins in presence of [33P]-ATP by scintillation counting method
[17] = target: Serine-protein kinase ATM (Homo sapiens, UniProt Q13315); assay: Inhibition of ATM in human MCF7 cells […] incubated for 1 hr by Cell Western assay; format: cell-based
[18] = target: T2, DNA-dependent protein kinase catalytic subunit; assay: Inhibition of full-length human DNA-PK expressed in baculovirus expression system using p53 as substrate incubated for 1 hr in presence of ATP by ELISA
[19] = target: T1, ATR/ATRIP; assay: Inhibition of full-length human recombinant FLAG-tagged ATR/c-Myc-tagged ATRIP using p53 as substrate incubated for 30 mins in presence of ATP by HTRF assay; format: protein-complex assay
[20] = system: HCT-116; assay: Inhibition of cell proliferation in human HCT-116 incubated for 48 hrs by Cell Titer Glo assay; format: functional, cell-based; conditions: HCT-116, 48 h
[21] = system: NCI-H23; assay: Inhibition of cell proliferation in human NCI-H23 incubated for 48 hrs by Cell Titer Glo assay; format: functional, cell-based; conditions: NCI-H23, 48 h
[22] = target: T1, ATR/ATRIP; assay: Inhibition of full-length recombinant human ATR/ATRIP using p53 as substrate incubated for 30 mins in presence of ATP by HTRF assay; format: protein-complex assay
[23] = target: T3, Poly [ADP-ribose] polymerase 1; assay: Inhibition of N-terminal GST-tagged recombinant human PARP1 (2 to 1014 residues) expressed in Sf9 insect cells incubated for 1 hr by colorimetric assay
[24] = target: Poly [ADP-ribose] polymerase tankyrase-1 (Homo sapiens, UniProt O95271); assay: Inhibition of tankyrase 1 (unknown origin) incubated for 1 hr by chemiluminescence assay
[25] = target: Poly [ADP-ribose] polymerase tankyrase-2 (Homo sapiens, UniProt Q9H2K2); assay: Inhibition of tankyrase 2 (unknown origin) incubated for 1 hr by chemiluminescence based assay

T1 sequence (Q13535 whole entry): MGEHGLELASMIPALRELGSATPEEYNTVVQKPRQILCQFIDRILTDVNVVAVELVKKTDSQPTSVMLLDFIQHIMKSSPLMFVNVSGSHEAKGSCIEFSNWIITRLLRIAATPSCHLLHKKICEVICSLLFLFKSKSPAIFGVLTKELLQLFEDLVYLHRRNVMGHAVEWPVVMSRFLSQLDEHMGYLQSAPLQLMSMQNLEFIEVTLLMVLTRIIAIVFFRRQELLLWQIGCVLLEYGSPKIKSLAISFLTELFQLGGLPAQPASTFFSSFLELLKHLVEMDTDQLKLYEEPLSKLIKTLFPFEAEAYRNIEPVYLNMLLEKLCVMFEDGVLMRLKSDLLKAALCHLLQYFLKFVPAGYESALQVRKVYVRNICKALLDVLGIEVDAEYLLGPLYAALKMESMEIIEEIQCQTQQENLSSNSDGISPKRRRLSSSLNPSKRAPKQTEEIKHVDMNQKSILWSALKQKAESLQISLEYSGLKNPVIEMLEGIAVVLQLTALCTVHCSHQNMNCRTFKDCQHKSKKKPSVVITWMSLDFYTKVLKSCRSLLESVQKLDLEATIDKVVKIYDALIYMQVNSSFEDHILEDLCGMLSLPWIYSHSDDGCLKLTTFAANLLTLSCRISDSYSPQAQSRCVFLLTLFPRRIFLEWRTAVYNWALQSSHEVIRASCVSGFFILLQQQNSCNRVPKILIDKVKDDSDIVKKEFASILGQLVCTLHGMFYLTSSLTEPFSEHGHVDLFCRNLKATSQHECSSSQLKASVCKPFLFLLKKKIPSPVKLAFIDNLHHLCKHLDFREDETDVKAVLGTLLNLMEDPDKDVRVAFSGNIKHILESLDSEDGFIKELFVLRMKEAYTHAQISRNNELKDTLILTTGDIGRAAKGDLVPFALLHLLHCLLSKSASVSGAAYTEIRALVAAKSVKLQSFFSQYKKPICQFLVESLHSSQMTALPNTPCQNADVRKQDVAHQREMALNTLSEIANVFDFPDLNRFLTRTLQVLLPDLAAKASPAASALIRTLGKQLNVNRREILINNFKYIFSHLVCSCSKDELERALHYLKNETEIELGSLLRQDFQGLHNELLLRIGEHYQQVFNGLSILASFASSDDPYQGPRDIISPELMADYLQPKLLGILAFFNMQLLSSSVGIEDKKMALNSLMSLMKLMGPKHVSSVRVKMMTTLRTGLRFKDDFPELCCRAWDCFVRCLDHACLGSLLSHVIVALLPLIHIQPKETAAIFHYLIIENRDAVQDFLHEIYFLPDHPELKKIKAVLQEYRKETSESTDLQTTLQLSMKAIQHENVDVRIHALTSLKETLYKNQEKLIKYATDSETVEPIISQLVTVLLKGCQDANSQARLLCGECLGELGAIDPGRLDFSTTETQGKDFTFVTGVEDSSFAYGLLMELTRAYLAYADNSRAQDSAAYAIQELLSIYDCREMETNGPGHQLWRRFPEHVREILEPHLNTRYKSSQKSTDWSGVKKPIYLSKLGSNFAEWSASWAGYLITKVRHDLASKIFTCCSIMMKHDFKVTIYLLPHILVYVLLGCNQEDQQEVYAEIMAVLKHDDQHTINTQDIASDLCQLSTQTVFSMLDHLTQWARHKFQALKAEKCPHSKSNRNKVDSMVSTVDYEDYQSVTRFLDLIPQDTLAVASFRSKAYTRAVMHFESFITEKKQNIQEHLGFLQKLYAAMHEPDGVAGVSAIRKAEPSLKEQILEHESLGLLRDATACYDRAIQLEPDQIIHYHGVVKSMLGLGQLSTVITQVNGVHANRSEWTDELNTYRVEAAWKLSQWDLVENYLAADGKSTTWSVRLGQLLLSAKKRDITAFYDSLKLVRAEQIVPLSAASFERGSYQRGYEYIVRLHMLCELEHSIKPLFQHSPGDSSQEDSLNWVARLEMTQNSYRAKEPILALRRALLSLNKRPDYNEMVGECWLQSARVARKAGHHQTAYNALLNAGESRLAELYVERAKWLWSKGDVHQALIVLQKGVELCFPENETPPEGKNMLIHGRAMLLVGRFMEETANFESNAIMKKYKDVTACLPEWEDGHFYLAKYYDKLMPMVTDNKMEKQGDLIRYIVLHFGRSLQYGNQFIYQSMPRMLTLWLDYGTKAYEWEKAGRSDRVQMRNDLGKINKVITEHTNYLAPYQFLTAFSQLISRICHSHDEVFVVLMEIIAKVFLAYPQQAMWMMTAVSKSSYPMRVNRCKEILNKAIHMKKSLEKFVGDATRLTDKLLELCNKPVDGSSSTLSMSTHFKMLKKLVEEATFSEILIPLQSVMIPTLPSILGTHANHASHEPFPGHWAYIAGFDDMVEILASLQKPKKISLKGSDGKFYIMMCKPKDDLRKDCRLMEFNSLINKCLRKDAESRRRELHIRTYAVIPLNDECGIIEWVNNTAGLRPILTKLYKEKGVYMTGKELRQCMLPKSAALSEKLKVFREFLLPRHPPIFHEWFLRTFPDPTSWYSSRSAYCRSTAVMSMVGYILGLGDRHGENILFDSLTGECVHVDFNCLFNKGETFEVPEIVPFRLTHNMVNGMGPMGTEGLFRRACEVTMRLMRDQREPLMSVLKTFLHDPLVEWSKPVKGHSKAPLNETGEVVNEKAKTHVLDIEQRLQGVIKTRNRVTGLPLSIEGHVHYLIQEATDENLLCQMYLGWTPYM
T1 sequence (Q8WXE1 whole entry, further chain): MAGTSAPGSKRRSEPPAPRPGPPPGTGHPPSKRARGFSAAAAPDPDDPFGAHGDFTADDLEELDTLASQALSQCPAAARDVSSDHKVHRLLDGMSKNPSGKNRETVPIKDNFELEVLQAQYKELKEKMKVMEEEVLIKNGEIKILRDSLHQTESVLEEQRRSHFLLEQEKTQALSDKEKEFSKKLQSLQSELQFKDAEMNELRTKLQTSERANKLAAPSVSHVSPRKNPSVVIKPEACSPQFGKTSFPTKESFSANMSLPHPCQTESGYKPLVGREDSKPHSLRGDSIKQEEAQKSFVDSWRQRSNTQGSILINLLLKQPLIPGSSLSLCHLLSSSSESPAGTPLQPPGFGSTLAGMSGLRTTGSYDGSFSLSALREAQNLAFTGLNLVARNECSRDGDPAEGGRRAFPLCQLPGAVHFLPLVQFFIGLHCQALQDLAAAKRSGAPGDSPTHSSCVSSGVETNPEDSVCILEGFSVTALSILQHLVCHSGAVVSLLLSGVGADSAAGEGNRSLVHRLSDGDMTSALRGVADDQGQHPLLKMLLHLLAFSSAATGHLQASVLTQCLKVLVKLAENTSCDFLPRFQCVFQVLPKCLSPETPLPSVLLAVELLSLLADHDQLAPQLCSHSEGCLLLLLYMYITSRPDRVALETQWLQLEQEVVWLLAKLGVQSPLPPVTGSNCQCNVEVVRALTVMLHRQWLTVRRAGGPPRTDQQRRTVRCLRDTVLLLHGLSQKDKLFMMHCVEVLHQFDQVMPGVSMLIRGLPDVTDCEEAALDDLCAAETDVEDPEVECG
T3 sequence (P09874 whole entry): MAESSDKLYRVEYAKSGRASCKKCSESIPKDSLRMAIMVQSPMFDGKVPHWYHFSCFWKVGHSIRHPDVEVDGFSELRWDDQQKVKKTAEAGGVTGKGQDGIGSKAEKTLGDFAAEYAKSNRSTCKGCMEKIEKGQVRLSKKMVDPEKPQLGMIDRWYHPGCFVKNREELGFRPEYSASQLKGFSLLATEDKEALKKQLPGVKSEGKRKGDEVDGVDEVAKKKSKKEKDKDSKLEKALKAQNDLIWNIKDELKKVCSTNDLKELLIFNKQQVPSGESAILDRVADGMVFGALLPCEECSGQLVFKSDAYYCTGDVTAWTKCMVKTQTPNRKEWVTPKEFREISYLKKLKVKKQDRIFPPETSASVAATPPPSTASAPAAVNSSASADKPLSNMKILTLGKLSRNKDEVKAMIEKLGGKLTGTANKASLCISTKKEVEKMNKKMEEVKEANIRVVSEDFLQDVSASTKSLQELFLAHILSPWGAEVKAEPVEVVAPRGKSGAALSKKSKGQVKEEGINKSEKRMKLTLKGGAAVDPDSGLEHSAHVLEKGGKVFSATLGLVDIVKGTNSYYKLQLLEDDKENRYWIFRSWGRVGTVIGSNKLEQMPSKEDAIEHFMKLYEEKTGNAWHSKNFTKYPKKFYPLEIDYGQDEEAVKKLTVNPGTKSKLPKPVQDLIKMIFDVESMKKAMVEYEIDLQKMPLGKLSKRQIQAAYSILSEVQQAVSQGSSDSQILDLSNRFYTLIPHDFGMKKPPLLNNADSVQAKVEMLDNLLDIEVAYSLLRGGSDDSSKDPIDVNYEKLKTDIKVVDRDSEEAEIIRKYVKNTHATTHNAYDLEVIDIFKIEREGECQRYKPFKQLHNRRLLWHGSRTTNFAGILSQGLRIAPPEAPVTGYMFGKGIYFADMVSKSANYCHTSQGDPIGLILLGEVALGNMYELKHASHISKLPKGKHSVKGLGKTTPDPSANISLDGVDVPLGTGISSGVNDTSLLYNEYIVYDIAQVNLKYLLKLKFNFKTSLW

## C[C@@H]1COC[C@H]2COc3c(nc(-c4ccnc5[nH]ccc45)nc3C3(C#N)CC3)N21
[1]
  IC50: 10 nM
[2]
  IC50: 456 nM

## Cc1ncc(-c2cc(NC[C@@H](C)c3cccc4c(-c5noc(=O)[nH]5)ccnc34)ncn2)cn1
[3]
  IC50: 39 nM

## C[C@@H]1COCCN1c1cc(-c2ccnn2C)c2ncc(-c3ccn[nH]3)n2n1
[4]
  IC50: 907 nM
[5]
  IC50: 938 nM
[6]
  IC50: 1220 nM

## NC(=O)c1cccc2cc(C(=O)N3CCN(c4nc(-c5cnc(N)cc5C(F)(F)F)nc(N5CCOCC5)n4)CC3)oc12
[7]
  IC50: 193 nM
[8]
  IC50: 166 nM
[9]
  IC50: 3410 nM

## CC(C)(C)CC(=O)C(=O)N1CCN(C(=O)c2cc(Cc3n[nH]c(=O)c4c3CCCC4)ccc2F)CC1
[10]
  IC50: < 200 nM

## CN1CCN(c2ccc(Nc3cc4c(cn3)C(=O)N(c3ccccc3Cl)C3=NCCN34)cc2)CC1
[11]
  IC50: 154 nM

## Cc1cc2ncnn2cc1Nc1ncc2c(n1)C1(CCC3(CC3)CC1)C(=O)N2C
[12]
  Cmax: 2170 nM
[13]
  bioavailability: 83%

## Nc1ncc(-c2nc(N3CCOCC3)nc(N3CCN(C(=O)c4cc(Cc5n[nH]c(=O)c6ccccc56)ccc4F)CC3)n2)cn1
[7]
  IC50: 1050 nM
[14]
  IC50: 0.78 nM
[8]
  IC50: 426 nM
[9]
  IC50: 1190 nM
[15]
  IC50: 94 nM

## C[C@@H]1CN(c2cc(O[C@H]3CC[C@@H](Nc4ncccn4)CC3)c3nccnc3c2)CCO1
[16]
  Ki: < 100 nM

## O=c1[nH]c(N[C@H]2CC[C@@H](Oc3cc(N4CCOCC4)cc4nccnc34)CC2)ncc1F
[16]
  Ki: < 100 nM

## CCc1ncc(S(=O)(=O)Nc2cc(-c3ccc4ncc5c(c4c3)C3(CCC3)C(=O)N5C)cnc2OCCCN(C)C)s1
[17]
  IC50: 1 nM
[18]
  IC50: 1 nM

## Cc1ncc(-c2cc(NC[C@H](C)c3cccc4c(C5=NCCN5)ccnc34)ncn2)cn1
[3]
  IC50: 122 nM

## C=CCn1c(=O)c2cnc(Nc3ccc(N4CCN(C)CC4)cc3)nc2n1-c1cccc(C(C)(C)O)n1 [ADAVOSERTIB]
[11]
  IC50: 284 nM

## C[C@@H]1COCCN1c1nc(-c2nncc3[nH]ccc23)nc2c1OC1CC2(S(C)(=O)=O)C1
[19]
  IC50: 104 nM
[2]
  IC50: 20.3 nM

## CNc1nc2ccc(F)cc2n1-c1nc(-c2ccnn2C)cc(N2CCOC[C@H]2C)n1
[20]
  IC50: < 10000 nM
[21]
  IC50: < 10000 nM
[22]
  IC50: < 500 nM

## NC(=O)c1cccc2cn(-c3ccc([C@@]4(F)CCCNC4)cc3)nc12
[23]
  IC50: < 100 nM

## COc1ccc(NC(=O)c2ccc(NC(=O)N3CCN(C(=O)c4cc(Cc5n[nH]c(=O)c6ccccc56)ccc4F)CC3)cc2)cc1
[24]
  IC50: 13.5 nM
[14]
  IC50: 0.25 nM
[25]
  IC50: 4.15 nM

## C[C@H]1CN(C(=O)c2cc(Cc3n[nH]c(=O)c4c3CCCC4)ccn2)CCN1C(=O)C(=O)C1CC1
[10]
  IC50: < 200 nM

## Cc1cc2ncnn2cc1Nc1ncc2c(n1)C1(CCC(C)(C)CC1)C(=O)N2C
[13]
  bioavailability: 114%

## NC(=O)c1cccc2cn(-c3ccc([C@]4(F)CCCNC4)cc3)nc12
[23]
  IC50: < 100 nM
